Among the data in US6489320B1, “5, 5-disubstituted-1, 5-dihydro-4, 1-benzoxazepin-2 (3H)-ones useful as HIV reverse transcriptase inhibitors” (Bristol-Myers Squibb Pharma Company, priority 1997, dated 2002) are melting point values, retold here.

Structures are written as SMILES. Where “and” joins values, the source holds several entries; their conditions need not be identical. Identical values can stand only once. Counter-ions that a name gives are not always drawn.

As usually defined, the melting point is the temperature of the solid-liquid transition. Compound `CC(C)/C=C/C1(C(F)(F)F)OCC(=O)Nc2ccc(F)c(F)c21` (stereo not drawn) [Example 27, trans-6,7-Difluoro-5-(2-isopropylethenyl)-1,5-dihydro-5-(trifluoromethyl)-4,1-benzoxazepin-2(3H)-one] gave a melting point of 159 to 160 °C. The figure for `O=C1Nc2ccc(F)c(F)c2[C@@](C#CC2CC2)(C(F)(F)F)O[C@H]1C1CC1` (relative stereo) [Example 46, rel-(3S,5S)-6,7-Difluoro-5-(2-cyclopropylethynyl)-1,5-dihydro-3-cyclopropyl-5-(trifluoromethyl)-4,1-benzoxazepin-2(3H)-one] is 222 to 222.5 °C. Then `CCC[C@@H]1O[C@](/C=C/C2CC2)(C(F)(F)F)c2cc(Cl)ccc2NC1=O` (relative stereo) [Example 30, rel-(3S,5S)-trans-7-Chloro-5-(2-cyclopropylethenyl)-1,5-dihydro-3-propyl-5-(trifluoromethyl)-4,1-benzoxazepin-2(3H)-one], with 165 to 167 °C and 167 °C; and `CC[C@@H]1O[C@](/C=C/C2CC2)(C(F)(F)F)c2cc(F)ccc2NC1=O` (relative stereo) [Example 51, rel-(3S,5S)-trans-7-Fluoro-5-(2-cyclopropylethenyl)-1,5-dihydro-3-ethyl-5-(trifluoromethyl)-4,1-benzoxazepin-2(3H)-one], with 148 to 149 °C; and `CC[C@@H]1O[C@](C#CC2CC2)(C(F)(F)F)c2cc(F)ccc2NC1=O` (relative stereo) [Example 49, rel-(3S,5S)-7-Fluoro-5-(2-cyclopropylethynyl)-1,5-dihydro-3-ethyl-5-(trifluoromethyl)-4,1-benzoxazepin-2(3H)-one], with 186 °C. The figure for `O=C1COC(C#Cc2cccnc2)(C(F)(F)F)c2cc(Cl)ccc2N1` (centres unmarked) [Example 24, 7-Chloro-5-(3-pyridylethynyl)-1,5-dihydro-5-(trifluoromethyl)-4,1-benzoxazepin-2(3H)-one] is 219 to 221 °C. The compound `CCC[C@@H]1O[C@](C#CC2CC2)(C(F)(F)F)c2cc(Cl)ccc2NC1=O` (relative stereo) [Example 14a, rel-(3S,5S)-7-Chloro-5-cyclopropylethynyl-1,5-dihydro-3-propyl-5-(trifluoromethyl)-4,1-benzoxazepin-2(3H)-one] showed a melting point of 191 to 192 °C. `CC(C)C#CC1(C(F)(F)F)OCC(=O)Nc2ccc(F)c(F)c21` (centres unmarked) [Example 13, 6,7-Difluoro-1,5-dihydro-5-(isopropylethynyl)-5-(trifluoromethyl)-4,1-benzoxazepin-2(3H)-one] gave a melting point of 192.5 to 193.5 °C.

The compound `CC[C@@H]1O[C@](C#Cc2ccoc2)(C(F)(F)F)c2cc(Cl)ccc2NC1=O` (relative stereo) (as salt: sodium) [Example 32, rel-(3S,5S)-7-Chloro-5-(3-furanylethynyl)-1,5-dihydro-3-ethyl-5-(trifluoromethyl)-4,1-benzoxazepin-2(3H)-one] had a melting point of 169 to 170 °C. Then `C=C[C@@H]1O[C@](C#CC2CC2)(C(F)(F)F)c2c(ccc(F)c2F)NC1=O` (relative stereo) [Example 45, rel-(3S,5S)-6,7-Difluoro-5-(2-cyclopropylethynyl)-1,5-dihydro-3-ethenyl-5-(trifluoromethyl)-4,1-benzoxazepin-2(3H)-one], with 171 to 172 °C; and `C[C@@H]1O[C@](/C=C/C2CC2)(C(F)(F)F)c2cc(F)ccc2NC1=O` (relative stereo) [Example 50, rel-(3S,5S)-trans-7-Fluoro-5-(2-cyclopropylethenyl)-1,5-dihydro-3-methyl-5-(trifluoromethyl)-4,1-benzoxazepin-2(3H)-one], with 180 to 182 °C; and `CC(C)C#CC1(C(F)(F)F)OCC(=O)Nc2ccc(Cl)cc21` (centres unmarked) [Example 3, 7-Chloro-1,5-dihydro-5-(isopropylethynyl)-5-(trifluoromethyl)-4,1-benzoxazepin-2(3H)-one], with 183 to 183.5 °C. Then `O=C1COC(C#CC2CC2)(C(F)(F)F)c2cc(Cl)ccc2N1` (centres unmarked) [Example 18, 7-Chloro-5-cyclopropylethynyl-1,5-dihydro-5-(trifluoromethyl)-4,1-benzoxazepin-2(3H)-one], with 199.5 to 200.5 °C; and `CC[C@@H]1O[C@](/C=C/C2CC2)(C(F)(F)F)c2cc(Cl)ccc2NC1=O` (relative stereo) [Example 38, rel-(3S,5S)-trans-7-Chloro-5-(2-cyclopropylethenyl)-1,5-dihydro-3-ethyl-5-(trifluoromethyl)-4,1-benzoxazepin-2(3H)-one], with 147 to 147.5 °C; and `C[C@@H]1O[C@](C#CC2CC2)(C(F)(F)F)c2cc(Cl)ccc2NC1=O` [Example 36, (+)-(3S,5S)-7-Chloro-5-cyclopropylethynyl-1,5-dihydro-3-methyl-5-(trifluoromethyl)-4,1-benzoxazepin-2(3H)-one], with 145 to 146 °C. The figure for `CC(C)C#CC1(C(F)(F)F)OCC(=O)Nc2ccc(F)cc21` (centres unmarked) [Example 7, 1,5-Dihydro-7-fluoro-5-isopropylethynyl-5-(trifluoromethyl)-4,1-benzoxazepin-2(3H)-one] is 172 to 173 °C; for `CCC#CC1(C(F)(F)F)OCC(=O)Nc2ccc(Cl)cc21` (centres unmarked) [Example 1, 5-(1-Butynyl)-7-chloro-1,5-dihydro-5-(trifluoromethyl)-4,1-benzoxazepin-2(3H)-one] it is 167 to 168 °C; for `C[C@@H]1O[C@](C#CC2CC2)(C(F)(F)F)c2cc(F)ccc2NC1=O` (relative stereo) [Example 48, rel-(3S,5S)-7-Fluoro-5-(2-cyclopropylethynyl)-1,5-dihydro-3-methyl-5-(trifluoromethyl)-4,1-benzoxazepin-2(3H)-one] it is 184 to 185 °C. `O=C1COC(/C=C/C2CC2)(C(F)(F)F)c2cc(Cl)ccc2N1` (stereo not drawn) [Example 5, trans-7-Chloro-5-(2-cyclopropylethenyl)-1,5-dihydro-5-(trifluoromethyl)-4,1-benzoxazepin-2(3H)-one] displayed a melting point of 157 to 158 °C.

`CC(C)[C@@H]1O[C@](C#CC2CC2)(C(F)(F)F)c2cc(Cl)ccc2NC1=O` (relative stereo) [Example 15, rel-(3S,5S)-7-Chloro-5-cyclopropylethynyl-1,5-dihydro-3-isopropyl-5-(trifluoromethyl)-4,1-benzoxazepin-2(3H)-one] returned a melting point of 167 °C. Then `CC[C@@H]1O[C@](C#CC2CC2)(C(F)(F)F)c2cc(Cl)ccc2NC1=O` (relative stereo) [Example 22, rel-(3S,5S)-7-Chloro-5-cyclopropylethynyl-1,5-dihydro-3-ethyl-5-(trifluoromethyl)-4,1-benzoxazepin-2(3H)-one], with 180 to 181 °C; and `CCC[C@H]1O[C@](C#CC2CC2)(C(F)(F)F)c2cc(Cl)ccc2NC1=O` (relative stereo) [Example 14b, rel-(3R,5S)-7-Chloro-5-cyclopropylethynyl-1,5-dihydro-3-propyl-5-(trifluoromethyl)-4,1-benzoxazepin-2(3H)-one], with 141 °C; and `CC[C@@H]1O[C@](/C=C/C2CC2)(C(F)(F)F)c2c(ccc3c2OCO3)NC1=O` (relative stereo) [Example 55, rel-(3S,5S)-trans-6,7-Methylenedioxy-5-(2-cyclopropylethenyl)-1,5-dihydro-3-ethyl-5-(trifluoromethyl)-4,1-benzoxazepin-2(3H)-one], with 188 to 190 °C. The figure for `CC(C)C#C[C@]1(C(F)(F)F)OCC(=O)Nc2ccc(Cl)cc21` (single isomer, unassigned) [Example 4] is 135 to 136 °C. The figure for `CC[C@H]1O[C@](C#CC2CC2)(C(F)(F)F)c2cc(Cl)ccc2NC1=O` (relative stereo) [Example 23, rel-(3R,5S)-7-Chloro-5-cyclopropylethynyl-1,5-dihydro-3-ethyl-5-(trifluoromethyl)-4,1-benzoxazepin-2(3H)-one] is 129 to 130 °C; for `C[C@@H]1O[C@](C#CC2CC2)(C(F)(F)F)c2c(ccc3c2OCO3)NC1=O` (relative stereo) [Example 52, rel-(3S,5S)-6,7-Methylenedioxy-5-(2-cyclopropylethynyl)-1,5-dihydro-3-methyl-5-(trifluoromethyl)-4,1-benzoxazepin-2(3H)-one] it is 252 °C; for `C[C@@H]1O[C@](/C=C/C2CC2)(C(F)(F)F)c2cc(Cl)ccc2NC1=O` [Example 39, (+)-(3S,5S)-trans-7-Chloro-5-(2-cyclopropylethenyl)-1,5-dihydro-3-methyl-5-(trifluoromethyl)-4,1-benzoxazepin-2(3H)-one] it is 175 to 175.5 °C. `O=C1COC(/C=C/c2ccco2)(C(F)(F)F)c2cc(Cl)ccc2N1` (stereo not drawn) [Example 10, trans-7-Chloro-1,5-dihydro-5-(2-furan-2-yl)ethenyl-5-(trifluoromethyl)-4,1-benzoxazepin-2(3H)-one] gave a melting point of 199 to 200 °C. Then `O=C1Nc2ccc(Cl)cc2[C@@](/C=C/C2CC2)(C(F)(F)F)O[C@H]1C1CC1` (relative stereo) [Example 44, rel-(3S,5S)-trans-7-Chloro-5-(2-cyclopropylethenyl)-1,5-dihydro-3-cyclopropyl-5-(trifluoromethyl)-4,1-benzoxazepin-2(3H)-one], with 143 to 144 °C; and `C=C[C@@H]1O[C@](/C=C/C2CC2)(C(F)(F)F)c2cc(Cl)ccc2NC1=O` (relative stereo) [Example 42, rel-(3S,5S)-trans-7-Chloro-5-(2-cyclopropylethenyl)-1,5-dihydro-3-ethenyl-5-(trifluoromethyl)-4,1-benzoxazepin-2(3H)-one], with 165.5 to 166.5 °C; and `CC(C)/C=C/C1(C(F)(F)F)OCC(=O)Nc2ccc(Cl)cc21` (stereo not drawn) [Example 20, trans-7-Chloro-5-(2-isopropylethenyl)-1,5-dihydro-5-(trifluoromethyl)-4,1-benzoxazepin-2(3H)-one], with 148 to 149 °C. The figure for `CCC#CC1(C(F)(F)F)OC(c2ccccc2)C(=O)Nc2ccc(Cl)cc21` [Example 2, rel-(3S,5S)-5-(1-Butynyl)-7-chloro-1,5-dihydro-3-phenyl-5-(trifluormethyl)-4,1-benzoxazepin-2(3H)-one] is 198 to 199 °C.
